Assay results from US8470548B2, “Diagnosis of depression” (Intra-Cellular Therapies, Inc., priority 2006, dated 2013).
Like-named read-outs stand apart in the source and are kept apart here.

Legend:
[1] = biological target: T1, 5-HT1A receptor (Mus musculus, UniProt Q64264); test: [35S]GTPγS binding in response to 5-HT1A receptor stimulation; type: biochemical, mice; conditions: 50 μM agonist
T1 construct: Fresh cryostat sections (12 μm) from wild-type, p11 KO and p11 transgenic mice; from tissue; host or cells: mouse brain cryostat sections
T1 sequence (Q64264 1-421): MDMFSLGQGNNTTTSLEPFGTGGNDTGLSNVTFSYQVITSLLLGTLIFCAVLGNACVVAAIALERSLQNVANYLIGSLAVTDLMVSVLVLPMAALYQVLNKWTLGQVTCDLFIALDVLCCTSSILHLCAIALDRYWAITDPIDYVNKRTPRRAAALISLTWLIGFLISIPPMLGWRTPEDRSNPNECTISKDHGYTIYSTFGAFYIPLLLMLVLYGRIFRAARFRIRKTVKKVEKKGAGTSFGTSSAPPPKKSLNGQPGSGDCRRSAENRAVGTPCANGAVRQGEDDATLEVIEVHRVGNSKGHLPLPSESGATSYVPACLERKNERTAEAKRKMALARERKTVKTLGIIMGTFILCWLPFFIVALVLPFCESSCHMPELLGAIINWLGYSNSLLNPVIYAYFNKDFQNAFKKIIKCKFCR
Method: (§1) Fresh cryostat sections (12 μm) from wild-type, p11 KO and p11 transgenic mice are preincubated for 30 min in Tris-HCl 50 mM (pH 7.4) supplemented with 100 mM NaCl, […] 3 mM MgCl2, 0.2 mM EGTA, 2 mM GDP and 1 U/ml adenosine deaminase to remove endogenous adenosine. The sections are thereafter incubated for two hours at 25° C. in the same solution containing 40 pM [^35S]GTP S, with (stimulation condition) or without (basal condition) 50 μM of the 5-HT1A receptor agonist, 8-OH-DPAT, or the 5-HT1B receptor agonist, anpirtoline. Non-specific labeling (background) is determined on autoradiographs from adjacent sections incubated with 10 μM of unlabeled GTP S. Sections are rinsed twice (3 min each) in 50 mM Tris-HCl buffer, once (30 sec) in distilled water to remove the buffer salts, and air-dried. The autoradiographs are obtained by 2-4 days exposure on Biomax MR film. Optical density measurements are obtained in several brain regions with the NIH Image 1.63 image analysis system.

[2] = test system: p11 mRNA; conditions: mice, 14 day treatment, once daily i.p., killed 1 hour after last injection
Method: For some experiments, brains from p11 KO mice and their wild-type counterparts are used. […] Animals are killed 1 hour after the last injection.
In situ hybridization probes are made by PCR amplification of nucleotides 1159-1420 of the coding sequence of the rat 5-HT1B receptor gene, nucleotides 1-293 of the coding sequence of the mouse or human p11 genes and nucleotides 1-287 of the coding sequence of the rat p11 gene, respectively. The different PCR fragments are subcloned into the pCRII-TOPO vector. With the exception of the studies on human tissue, 12-μm-thick cryostat sections are made for all studies. Sections are hybridized with [□^−35S]UTP-labeled riboprobe repared by in vitro transcription from cDNA corresponding to the rat 5-HT1B receptor gene or mouse, rat or human p11 gene as previously described (S5). After hybridization, the sections are exposed to Biomax MR film for 7 to 24 days and analyzed using the NIH Image 1.63 software. Unless indicated, analyses are made in the prelimbic/anterior cingulate cortex. Some sections are dipped into Ilford K5 emulsion for cellular analysis. After 8 weeks, the sections are developed, Nissl-stained and mounted.

[3] = test system: AMPA receptors; test: Electrophysiology, fEPSP/PS in nucleus accumbens slices, CNQX; parameters: species or system mice; conditions: 15 min after CNQX
Method: (§2) Male p11 KO and wild-type mice (4-7 weeks old) are decapitated under fluorothane anesthesia. Their brains are rapidly removed and coronal brain slices (400 μm thick), containing the nucleus accumbens, are prepared with a microslicer. Slices are incubated, for at least 1 h, at 32° C. in oxygenated (95% O2+5% CO2) artificial cerebrospinal fluid (aCSF) containing (in mM): 126 NaCl, 2.5 KCl, 1.2 NaH2PO4, 1.3 MgCl2, 2.4 CaCl2, 10 glucose and 26 NaHCO3, pH 7.4. Slices are transferred to a recording chamber mounted on an upright microscope and are continuously perfused with oxygenated aCSF at 28° C. Extracellular field potentials are recorded using a glass micropipette filled with aCSF positioned on the slice surface in the nucleus accumbens. Signals are amplified 500 times via an Axopatch 200B amplifier acquired at 10 kHz, filtered at 2 kHz and recorded on a Computer using acquisition and pClamp9 data analysis software. Synaptic responses are evoked with a concentric bipolar stimulating electrode placed near the recording electrode on the surface of the slice. […] Single stimuli (0.1 ms duration) are applied every 15 sec at an intensity yielding 50-70% maximal response as assessed by a stimulus/response curve established for each slice examined by measuring the amplitude of the field potential evoked by increasing stimulus intensities. […] Numerical values are expressed as means […]SEM. […]

[4] = biological target: T2, 5-HT1B receptor (Mus musculus, UniProt P28334); test: Quantitative receptor autoradiography, [125I]cyanopindolol binding and serotonin displacement; parameters: Cryostat sections (12 μm thick) are made from p11 KO and wild-type mice; from tissue; host or cells: mouse brain cryostat sections (globus pallidus, substantia nigra); wild-type, p11 KO and p11 transgenic mice; species or system mice
Method: Cryostat sections (12 μm thick) are made from p11 KO and wild-type mice. 5-HT1B receptors are detected by incubating the sections in 170 mM Tris/150 mM NaCl pH 7.4 (25° C.) containing the antagonist [^125I]cyanopindolol (0.3, 1, 3, 10, 30, 100 pM; 2200 Ci/mmol), 100 nM 8-OH-DPAT as a 5-HT1A blocker, and 30 μM isoproterenol, as β-adrenergic receptor blocker, for two hours (S9). Non-specific binding is determined by measurements in the presence of 100 μM serotonin. In displacement experiments, increasing concentrations of serotonin (0, 0.3, 1, 3, 10, 30, 100, 300, 1000, 10000 nM) are incubated with 10 pM [^125I]cyanopindolol as described above. […] At the end of all autoradiographic experiments, sections are rinsed 2×5 min in their corresponding cold binding buffers, dipped in distilled water at 4° C. and dried under cold air. The sections are apposed to Biomax MR films for 3-5 days ([^125I]cyanopindolol) or 4-10 weeks ([^3H]GR125743, [^3H]8-OHDPAT, ^3H]SCH23390, [^3H]raclopride) together with ^[125I] or [^3H] microscales. Optical density measurements are obtained in several brain regions with the NIH Image 1.63 image analysis system. Specific binding is calculated by digital subtraction of nonspecific labeling from total binding. Standard curves generated from [^3H] or [^125I] microscales are used to convert optical densities into femtomoles per milligram of protein. Data obtained from saturation and displacement experiments are analyzed using non-linear regression equations.

[5] = test system: immobility; test: Tail suspension test; type: in vivo; conditions: p11 KO mice compared with wild-type mice after acute treatment, 15 minutes postinjection
Method: The tail suspension test, a model of antidepressant-like activity, is carried out as described (S11) and is a modified version of that validated for C57B16 (S12) and NMRI mice (S13). Mice are individually suspended by the tail to a horizontal bar (distance from floor is 35 cm) using adhesive tape (distance from tip of tail is 2 cm). […] A 6-min test session is videotaped and scored by an observer who is unaware of the genotype. The parameter recorded is the number of seconds spent immobile. In experiments with anpirtoline (5 mg/kg) and imipramine (10 mg/kg), animals are tested 15 minutes postinjection.

[6] = biological target: T2, 5-HT1B receptor; test: [35S]GTPγS binding in response to 5-HT1B receptor stimulation; type: biochemical; parameters: Cryostat sections (12 μm thick) are made from p11 KO and wild-type mice; from tissue; host or cells: mouse brain cryostat sections (globus pallidus, substantia nigra); wild-type, p11 KO and p11 transgenic mice; conditions: p11 KO mice, 50 μM agonist
Method: as §1

[7] = test system: phospho-Thr202/Tyr204-ERK1/2; test: Western blotting of phosphorylated ERK1/2 in primary cortical cultures; type: cell-based; conditions: primary cortical cultures from p11 KO mice, 10 μM, 15 minutes
Method: Cortices are removed from E18 mice generated from WT×WT or p11KO×p11KO breedings, trypsinized (0.25%), dissociated by trituration and plated onto poly-L-lysine (1 mg/ml) coated six-well plates. The cultures (500,000 cells/ml) are grown in medium containing DMEM with 5% fetal bovine serum, 4 mM L-glutamine, B-27 nutrient supplement, penicillin (5 U/ml), and streptomycin (5 μg/ml). After two weeks, the cultures are treated with vehicle, serotonin (10 μM) or anpirtoline (10 μM) for 15 minutes. At the end of the treatment, the drug-containing medium is removed, the wells rinsed in ice-cold PBS, the neurons removed by a cell scraper and frozen in liquid nitrogen. Frozen cell samples are sonicated in 1% SDS and boiled for 10 min. Small aliquots of the homogenate are retained for protein determination by the bicinchoninic acid protein assay method. Equal amounts of protein are processed by using 10% acrylamide gels, as described (S10). Immunoblotting is carried out with a phosphorylation-state-specific antibody against phospho-Thr202/Tyr204-ERK1/2 or an antibody that is not phosphorylation-state-specific against total ERK1/2. Antibody binding is detected by enhanced chemiluminescence and quantified by densitometry, using National Institutes of Health IMAGE 1.63 software. The level of the phosphorylated form of ERK1/2 is normalized to its total level. All data are presented as normalized levels.

[8] = test system: thigmotaxis; test: Open-field analysis (thigmotaxis); type: in vivo; conditions: wild-type mice treated long-term with imipramine; anpirtoline 5 mg/kg i.p., 15 min postinjection
Method: Horizontal activities are measured for 30 minutes (results are analyzed every 5 min period) during daytime in a fully computerized, multicage, red and infrared-sensitive motion detection system. The peripheral activity values are divided […] by the total horizontal activity values to determine thigmotaxis. In experiments with anpirtoline (5 mg/kg, i.p.) animals are tested 15 min postinjection. Some anpirtolinetreated mice had received daily injections with imipramine (10 mg/kg, i.p.) for 4 weeks until the day before the experiment.

[9] = test system: phospho-Ser9-synapsin I; test: Western blotting of phosphorylated synapsin I in brain slices; type: cell-based; conditions: striatal slices from p11 KO mice, 50 μM, 2 min
Method: Slices (300 μm) from the striatum are prepared from wild-type and p11 KO mice as described (S10). The slices are preincubated in Krebs buffer (118 mM NaCl/4.7 mM KCl/1.5 mM […]/1.2 mM KH2PO4/25 mM NaHCO3/11.7 mM glucose/1.3 mM CaCl2) at 30° C. under constant oxygenation (95% O2/5% CO2) for 60 min, with a change of buffer after […]. Slices are treated with vehicle or anpirtoline (50 μM) for 2 min. After drug treatment, the buffer is removed, the slices are rapidly frozen on dry ice, sonicated in 1% SDS and boiled for 10 min. Small aliquots of the homogenate are retained for protein determination by the bicinchoninic acid protein assay method. Equal amounts of protein are processed by using 10% acrylamide gels. Immunoblotting is carried out with a phosphorylation-state-specific rabbit polyclonal antibody against phospho-Ser9-synapsin I, a site that is phosphorylated by PKA and CamKII, or a rabbit polyclonal synapsin antibody that is not phosphorylation-state-specific. Antibody binding is detected by enhanced chemiluminescence and quantified by densitometry, using National Institutes of Health IMAGE 1.63 software. The level of the phosphorylated form of synapsin is normalized to its total level. All data are presented as normalized levels.

[10] = test system: p11; test: p11 expression in PBMC of monkeys receiving fluoxetine; type: in vivo
[11] = biological target: T3, 5-HT1B receptor (Homo sapiens, UniProt P28222); test: cAMP measurements in COS 7 cells; type: cell-based
T3 construct: V5 (C); expressed in transfected cells; host or cells: COS 7
Method: COS 7 cells grown in DMEM medium are transfected with 5-HT1B receptors and/or p11. Thirty six hours later the cells are pretreated with theophylline (5 mM) and pargyline (10 μM) for 15 min. Vehicle or forskolin (10 μM) with or without serotonin (10 μM), is then added for another 15 minutes. At the end of the treatment, the drug-containing medium is removed, the wells rinsed in PBS and the cells harvested. cAMP formation is quantitated by a direct cAMP enzyme immunoassay kit according to the manufacturers instructions.

[12] = biological target: T2, 5-HT1B receptor; test: Electrophysiology, fEPSP/PS in nucleus accumbens slices, serotonin; conditions: slices from WT mice; serotonin 50 μM in the presence of 10 μM fluoxetine
Method: as §2

T2 sequence (P28334 whole entry): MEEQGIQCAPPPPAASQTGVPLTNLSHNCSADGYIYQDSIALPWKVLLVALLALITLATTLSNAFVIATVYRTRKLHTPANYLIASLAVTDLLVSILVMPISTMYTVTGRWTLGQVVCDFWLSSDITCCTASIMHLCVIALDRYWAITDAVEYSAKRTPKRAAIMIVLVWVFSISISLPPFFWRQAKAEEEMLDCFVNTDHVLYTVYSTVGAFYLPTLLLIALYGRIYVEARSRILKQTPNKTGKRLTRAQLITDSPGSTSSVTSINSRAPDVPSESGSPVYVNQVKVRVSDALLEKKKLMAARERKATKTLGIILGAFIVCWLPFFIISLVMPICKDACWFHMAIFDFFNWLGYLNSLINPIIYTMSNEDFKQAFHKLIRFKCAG
T3 sequence (P28222 whole entry): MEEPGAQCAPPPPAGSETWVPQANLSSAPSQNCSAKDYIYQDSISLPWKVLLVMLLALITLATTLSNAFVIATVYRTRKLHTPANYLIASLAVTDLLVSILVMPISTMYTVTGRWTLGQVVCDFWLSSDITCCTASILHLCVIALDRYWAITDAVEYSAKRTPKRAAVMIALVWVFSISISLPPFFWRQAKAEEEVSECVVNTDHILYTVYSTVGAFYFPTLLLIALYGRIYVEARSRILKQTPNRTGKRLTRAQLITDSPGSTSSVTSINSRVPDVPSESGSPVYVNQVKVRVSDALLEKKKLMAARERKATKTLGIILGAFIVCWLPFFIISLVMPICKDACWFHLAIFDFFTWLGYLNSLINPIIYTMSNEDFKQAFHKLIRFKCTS

CCCN(CCC)C1CCc2cccc(O)c2C1 (racemic) [8-OH-DPAT, (+/−)-8-hydroxy-2-(di-n-propylamino)tetralin]
[35S]GTP-S binding ([1]; p11 KO mice): 5.0±2.0 optical density units
[35S]GTP-S binding ([1]; wild-type mice): 6.0±2.1 optical density units

N[C@@H]1C[C@H]1c1ccccc1 (racemic) [tranylcypromine]
p11 mRNA in the forebrain [2]: upregulation of p11 mRNA

N#Cc1cc2c(cc1[N+](=O)[O-])=NC(=O)C(=O)N=2 [CNQX, 6-cyano-7-nitroquinoxaline-2,3-dione]
f EPSP/population spike (PS) reduction compared with baseline ([3]; p11 KO mice): 81%
f EPSP/population spike (PS) reduction compared with baseline ([3]; wild-type mice): 77%

CC(C)(C)NCC(O)COc1cccc2[nH]c(C#N)c([125I])c12 (centres unmarked) [[^125I]iodocyanopindolol]
binding in substantia nigra pars reticulata ([4]; p11 KO mice): 77.3±5.8 fmol/mg protein
binding in substantia nigra pars reticulata ([4]; wild-type mice): 98.8±6.2 fmol/mg protein

Clc1cccc(SC2CCNCC2)n1 [anpirtoline]
immobility in the tail suspension test [5]: increased immobility
ability to increase [35S]GTP-S binding in globus pallidus [6]: reduced ability
down-regulation of phospho-Thr202/Tyr204-ERK1/2 levels [7]: loss of ability
thigmotaxis [8]: significant reduction in thigmotaxis
decrease of phospho-Ser9-synapsin I [9]: loss of ability

CNCCC(Oc1ccc(C(F)(F)F)cc1)c1ccccc1 (centres unmarked) [fluoxetine]
increase in p11 expression in peripheral blood mononuclear cells (PBMC) [10]: more than twofold

O=C(CCCN1CCC(O)(c2ccc(Cl)cc2)CC1)c1ccc(F)cc1 [haloperidol]
p11 mRNA in the forebrain [2]: not

CN(C)CCCN1c2ccccc2CCc2ccccc21 [imipramine]
immobility in the tail suspension test [5]: increased immobility
p11 mRNA in the forebrain [2]: upregulation of p11 mRNA

Cc1nc2n(c(=O)c1CCN1CCC(c3noc4cc(F)ccc34)CC1)CCCC2 [risperidone]
p11 mRNA in the forebrain [2]: not

NCCc1c[nH]c2ccc(O)cc12 [serotonin, 5-hydroxy-tryptamine]
ability to counteract forskolin-induced cAMP formation ([11]; COS-7 cells transfected with the 5-HT1B receptor, in the presence of cotransfected p11, serotonin (10 µM)): increased
cAMP formation in untransfected COS 7 cells ([11]; control experiments, untransfected cells): does not alter cAMP formation
amplitude of the fEPSP/PS [12]: depresses the amplitude
down-regulation of phospho-Thr202/Tyr204-ERK1/2 levels [7]: loss of ability
EC50 [4]: 52 nM
EC50 ([4]; median effective concentration (EC50) to displace bound [125I]iodocyanopindolol, wild-type mice, brain sections): 57 nM
